Source: patent US8518942B2, “Caspase inhibitors and uses thereof” (Buck Institute for Research on Aging, priority 2008, dated 2013)

Experiments:
caspase-6 = target: T1, caspase-6 (Homo sapiens, UniProt P55212); test: Blots of full-length huntingtin (23Q & 148Q) treated with caspase-6 plus inhibitor; format: biochemical; settings: for Proteolysis of Htt at amino acid 586 (caspase-6 site): 1-100 nM; for Inhibition of caspase-6 cleavage of full-length huntingtin (blot): 23Q & 148Q, at 1.0 μM and 10 μM; for Blocking the cleavage of Htt at amino acid 586 mediated by caspase-6: conclusion
T1 construct: gift: Guy Salvesen's laboratory, Burnham Institute (La Jolla, Calif.)
T1 sequence (P55212 24-179 limits assumed): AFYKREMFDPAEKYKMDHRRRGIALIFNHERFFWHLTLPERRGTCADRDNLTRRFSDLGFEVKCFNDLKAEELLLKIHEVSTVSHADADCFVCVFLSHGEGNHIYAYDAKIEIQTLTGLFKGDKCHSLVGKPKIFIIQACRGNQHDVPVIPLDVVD
T1 sequence (P55212 194-293 limits assumed): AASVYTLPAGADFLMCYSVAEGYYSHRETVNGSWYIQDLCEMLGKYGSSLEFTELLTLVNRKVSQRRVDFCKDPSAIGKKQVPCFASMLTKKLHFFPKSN

caspase-2 = target: T2, caspase-2 (Homo sapiens, UniProt P42575); test: Blots of full-length huntingtin (23Q & 148Q) treated with caspase-2 plus inhibitor; format: biochemical; settings: for Inhibition of caspase-2 cleavage of full-length huntingtin (blot): 23Q & 148Q, at the higher concentration of 10 μM; for Caspase-2 cleavage of Htt: conclusion
T2 sequence (P42575 170-325 limits assumed): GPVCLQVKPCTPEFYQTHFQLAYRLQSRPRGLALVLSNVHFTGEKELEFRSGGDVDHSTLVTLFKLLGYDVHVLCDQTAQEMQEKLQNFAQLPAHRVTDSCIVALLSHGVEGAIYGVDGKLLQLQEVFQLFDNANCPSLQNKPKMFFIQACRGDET
T2 sequence (P42575 348-452 limits assumed): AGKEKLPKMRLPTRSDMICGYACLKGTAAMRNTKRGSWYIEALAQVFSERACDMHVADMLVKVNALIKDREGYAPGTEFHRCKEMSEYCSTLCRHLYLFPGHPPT

caspase-8 = target: T3, caspase-8 (Homo sapiens, UniProt Q14790); test: Irreversible inhibitor kinetic assay (progress curve), caspase-8, substrate Ac-DEVD-AMC; format: biochemical; settings: casp-8; duplicate, SD included
T3 construct: gift: Guy Salvesen's laboratory, Burnham Institute (La Jolla, Calif.)
T3 sequence (Q14790 217-374 limits assumed): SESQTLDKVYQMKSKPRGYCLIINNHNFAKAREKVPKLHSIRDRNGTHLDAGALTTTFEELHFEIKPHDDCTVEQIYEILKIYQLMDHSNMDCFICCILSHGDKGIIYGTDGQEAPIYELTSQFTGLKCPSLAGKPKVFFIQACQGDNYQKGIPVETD
T3 sequence (Q14790 385-479 limits assumed): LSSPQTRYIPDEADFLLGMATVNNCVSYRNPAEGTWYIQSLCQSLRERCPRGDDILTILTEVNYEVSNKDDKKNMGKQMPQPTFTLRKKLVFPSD
Excerpt: Caspases-3, -6, -7, -8, and -9 were provided by Guy Salvesen's laboratory at the Burnham Institute (La Jolla, Calif.). Caspase-1 was purchased from EMD Biosciences (San Diego, Calif.) and Caspase-2 was purchased from Biomol International (Plymouth Meeting, Pa.). Caspase substrates Ac-DEVD-AMC, Ac-VDVAD-AFC, and Ac-LEHD-AFC were purchased from EMD Biosciences (San Diego, Calif.) and Ac-VDVAD-AMC was purchased from Biomol International (Plymouth Meeting, Pa.). The proteolytic cleavage of N-acyl aminocoumarins by caspases was conducted in Dynatech Microfluor fluorescence 96-well microtiter plates, and readings were taken on a Molecular Devices Spectra Max Gemini XS instrument. The excitation wavelength was 370 nm and the emission wavelength was 455 nm for AMCA substrates, the excitation wavelength was 355 nm and the emission wavelength was 450 nm for peptidyl AMC substrates, and the excitation wavelength was 430 nm and the emission wavelength was 535 nm for peptidyl AFC substrates.
The kinact/Ki for inhibitors were determined under pseudo-first order conditions using the progress curve method (Eckici et al. (2006) J. Med. Chem., 49: 5728-5749; Bieth (1995) Meth. Enzymol., 248: 59-84). Assay wells contained a mixture of inhibitor and AMC or AFC substrate in buffer. Aliquots of caspase were added to each well to initiate the assay. Hydrolysis of the AMC or AFC substrate was monitored fluorometrically for 45 min. To determine the inhibition parameters, time points for which the control ([I]=0) was linear were used. For each inhibitor, a kobs was calculated for at least four different concentrations of inhibitors via a nonlinear regression of the data according to the equation P=(vi/kobs)[1−exp(−kobst) (where product formation=P, […], and the first-order rate constant=kobs). If kobs varied linearly with [I], then the association constant kass was determined by linear regression analysis using kobs=(kass[I])/(1+[S]/Km) where [S] is the concentration of the substrate. […] Inhibition was measured in duplicate and the average of is reported. […]

Hdh111Q cells = test: Evaluation of inhibitors in Hdh111Q cells (toxicity, caspase activation); format: cell-based; settings: for Hdh111Q mediated toxicity: 1-100 nM; for Caspase activation in Hdh111Q cells: FIG. 18

Compound	Proteolysis of Htt at amino acid 586 (caspase-6 site) (caspase-6)	Inhibition of caspase-6 cleavage of full-length huntingtin (blot) (caspase-6)	Blocking the cleavage of Htt at amino acid 586 mediated by caspase-6 (caspase-6)	Inhibition of caspase-2 cleavage of full-length huntingtin (blot) (caspase-2)	Caspase-2 cleavage of Htt (caspase-2)	kinact/Ki (caspase-8)	Hdh111Q mediated toxicity (Hdh111Q cells)	Caspase activation in Hdh111Q cells (Hdh111Q cells)	Rank of potency in blocking caspase activation in Hdh111Q cells (Hdh111Q cells; among MJL-001i, MJL-002i, MJL-003i)
C[C@@](NS(=O)(=O)Cc1ccccc1)(c1cn([C@@H](CC(=O)O)C(=O)COc2c(F)c(F)cc(F)c2F)nn1)C1CCCCC1 [MJL-001i]	blocked	inhibition	affective at blocking	slight inhibition	do not inhibit	82,850 ± 1,150 s^−1/M^−1	suppressed	block	–
C[C@@](NC(=O)CCCC(=O)O)(c1cn([C@@H](CC(=O)O)C(=O)COc2c(F)c(F)cc(F)c2F)nn1)C1CCCCC1 [MJL-002i]	blocked	inhibition	affective at blocking	–	do not inhibit	30,650 ± 1,950 s^−1/M^−1	suppressed	block	–
C[C@@](NC(=O)Cc1ccccc1)(c1cn([C@@H](CC(=O)O)C(=O)COc2c(F)c(F)cc(F)c2F)nn1)C1CCCCC1 [MJL-003i]	blocked	inhibition	affective at blocking	slight inhibition	do not inhibit	60,000 ± 2,800 s^−1/M^−1	suppressed	block	most potent
